Results reported in PubChem BioAssay AID2060509 (Molecular Pharmacology Branch, DTP, NCI, 2025).
pIC50: −log10 of the molar value.

System: 485176-168-R4-J1-PDC spheroids with HUVEC/MSC, viability
Experiment: Anticancer human tumor 485176-168-R4-J1-PDC patient-derived pancreatic adenocarcinoma cell line growth inhibition [GQUAD]
Settings: for pIC50: curve of first compound; for viability, T/C: stronger effect = lower value; active means viability on the fitted dose curve at most 10% of control; inactive means the rest
How it was run: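 Multi-cell-type spheroids of tumor cells with HUVEC and mesenchymal stem cells, treated with drug combinations. Concentrations descend in half-log steps from near clinical Cmax, or from 10 microM where Cmax is unknown; viability read-out.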

[1] = second compound 0.0316 µM, first compound 0.0316 µM
[2] = second compound 0.0316 µM, first compound 0.1 µM
[3] = second compound 0.0316 µM, first compound 0.316 µM
[4] = second compound 0.0316 µM, first compound 1 µM
[5] = second compound 0.0316 µM, first compound 3.16 µM
[6] = second compound 0.0316 µM, first compound 10 µM
[7] = second compound 0.1 µM, first compound 0.0316 µM
[8] = second compound 0.1 µM, first compound 0.1 µM
[9] = second compound 0.1 µM, first compound 0.316 µM
[10] = second compound 0.1 µM, first compound 1 µM
[11] = second compound 0.1 µM, first compound 3.16 µM
[12] = second compound 0.1 µM, first compound 10 µM
[13] = second compound 0.316 µM, first compound 0.0316 µM
[14] = second compound 0.316 µM, first compound 0.1 µM
[15] = second compound 0.316 µM, first compound 0.316 µM
[16] = second compound 0.316 µM, first compound 1 µM
[17] = second compound 0.316 µM, first compound 3.16 µM
[18] = second compound 0.316 µM, first compound 10 µM
[19] = second compound 1 µM, first compound 0.0316 µM
[20] = second compound 1 µM, first compound 0.1 µM
[21] = second compound 1 µM, first compound 0.316 µM
[22] = second compound 1 µM, first compound 1 µM
[23] = second compound 1 µM, first compound 3.16 µM
[24] = second compound 1 µM, first compound 10 µM
[25] = second compound 3.16 µM, first compound 0.0316 µM
[26] = second compound 3.16 µM, first compound 0.1 µM
[27] = second compound 3.16 µM, first compound 0.316 µM
[28] = second compound 3.16 µM, first compound 1 µM
[29] = second compound 3.16 µM, first compound 3.16 µM
[30] = second compound 3.16 µM, first compound 10 µM
[31] = second compound 10 µM, first compound 0.0316 µM
[32] = second compound 10 µM, first compound 0.1 µM
[33] = second compound 10 µM, first compound 0.316 µM
[34] = second compound 10 µM, first compound 1 µM
[35] = second compound 10 µM, first compound 3.16 µM
[36] = second compound 10 µM, first compound 10 µM
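Further: spheroids exposed to compounds for seven days before readout.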
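Wherever viability, T/C is given: percent viability relative to DMSO vehicle control wells as 100%.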

COc1cccc2c1C(=O)c1c(O)c3c(c(O)c1C2=O)CC(O)(C(=O)CO)CC3OC1CC(N)C(O)C(C)O1 (stereo unspecified) + Cc1cnc(CNC(=O)c2c(=O)c3ccc(N4CCCN(C)CC4)nc3n3c2sc2ccccc23)cn1
6.85: pIC50 (second compound 0.1 µM)
active: viability, T/C [5] 3.49% | viability, T/C [6] 0.42% | viability, T/C [11] 1.67% | viability, T/C [12] 0.88% | viability, T/C [17] 6.39% | viability, T/C [18] 0.16% | viability, T/C [23] 8.43% | viability, T/C [24] 0.95% | viability, T/C [30] 0.84% | viability, T/C [36] 1.08%
6.40: pIC50 (second compound 0.0316 µM)
> 7.50: pIC50 (second compound 1 µM) | pIC50 (second compound 3.16 µM) | pIC50 (second compound 10 µM)
6.71: pIC50 (second compound 0.316 µM)
inactive: viability, T/C [1] 81.3% | viability, T/C [2] 60.9% | viability, T/C [3] 60.5% | viability, T/C [4] 13.4% | viability, T/C [7] 80.5% | viability, T/C [8] 55.9% | viability, T/C [9] 34.5% | viability, T/C [10] 20.1% | viability, T/C [13] 55.8% | viability, T/C [14] 50.8% | viability, T/C [15] 48.7% | viability, T/C [16] 18.6% | viability, T/C [19] 54.5% | viability, T/C [20] 41% | viability, T/C [21] 51.7% | viability, T/C [22] 28.2% | viability, T/C [25] 41.6% | viability, T/C [26] 40.2% | viability, T/C [27] 44.5% | viability, T/C [28] 28.1% | viability, T/C [29] 7.56% | viability, T/C [31] 49.8% | viability, T/C [32] 39.7% | viability, T/C [33] 44.6% | viability, T/C [34] 30.4% | viability, T/C [35] 7.78%

Nc1ccn(C2OC(CO)C(O)C2(F)F)c(=O)n1 (stereo unspecified) + Cc1cnc(CNC(=O)c2c(=O)c3ccc(N4CCCN(C)CC4)nc3n3c2sc2ccccc23)cn1
> 7.50: pIC50 (second compound 1 µM) | pIC50 (second compound 3.16 µM) | pIC50 (second compound 10 µM)
inactive: viability, T/C [1] 60.9% | viability, T/C [2] 17.7% | viability, T/C [3] 11% | viability, T/C [7] 51.1% | viability, T/C [8] 24.9% | viability, T/C [9] 7.73% | viability, T/C [10] 11.8% | viability, T/C [11] 11.2% | viability, T/C [12] 12.9% | viability, T/C [13] 60.3% | viability, T/C [14] 22% | viability, T/C [15] 10.2% | viability, T/C [16] 10.3% | viability, T/C [17] 11.5% | viability, T/C [18] 11.2% | viability, T/C [19] 40.8% | viability, T/C [20] 19.7% | viability, T/C [21] 11.4% | viability, T/C [22] 11.6% | viability, T/C [23] 12.7% | viability, T/C [24] 11.7% | viability, T/C [25] 43.6% | viability, T/C [26] 20.3% | viability, T/C [27] 11.1% | viability, T/C [28] 9.17% | viability, T/C [29] 12.5% | viability, T/C [30] 12.6% | viability, T/C [31] 37% | viability, T/C [32] 24.6% | viability, T/C [33] 10.4% | viability, T/C [34] 10.4%
active: viability, T/C [4] 8.82% | viability, T/C [5] 8.83% | viability, T/C [6] 9.73% | viability, T/C [35] 11.1% | viability, T/C [36] 9.2%
7.37: pIC50 (second compound 0.0316 µM) | pIC50 (second compound 0.316 µM)
7.48: pIC50 (second compound 0.1 µM)

O=c1[nH]cc(F)c(=O)[nH]1 + Cc1cnc(CNC(=O)c2c(=O)c3ccc(N4CCCN(C)CC4)nc3n3c2sc2ccccc23)cn1
6.07: pIC50 (second compound 0.0316 µM)
6.69: pIC50 (second compound 1 µM)
> 7.50: pIC50 (second compound 3.16 µM) | pIC50 (second compound 10 µM)
6.57: pIC50 (second compound 0.1 µM)
6.61: pIC50 (second compound 0.316 µM)
inactive: viability, T/C [1] 84.7% | viability, T/C [2] 77.4% | viability, T/C [3] 66.1% | viability, T/C [4] 45.9% | viability, T/C [5] 43.5% | viability, T/C [6] 43.6% | viability, T/C [7] 63.3% | viability, T/C [8] 73.5% | viability, T/C [9] 47.2% | viability, T/C [10] 47.1% | viability, T/C [11] 46.4% | viability, T/C [12] 43.6% | viability, T/C [13] 53.8% | viability, T/C [14] 66.1% | viability, T/C [15] 47.4% | viability, T/C [16] 45.3% | viability, T/C [17] 35.1% | viability, T/C [18] 45.7% | viability, T/C [19] 50.5% | viability, T/C [20] 54.7% | viability, T/C [21] 48.3% | viability, T/C [22] 38.2% | viability, T/C [23] 36.4% | viability, T/C [24] 41% | viability, T/C [25] 40.6% | viability, T/C [26] 44.1% | viability, T/C [27] 37.2% | viability, T/C [28] 32.8% | viability, T/C [29] 34.5% | viability, T/C [30] 31.3% | viability, T/C [31] 41.5% | viability, T/C [32] 45% | viability, T/C [33] 33.5% | viability, T/C [34] 30.3% | viability, T/C [35] 34.4% | viability, T/C [36] 34.3%
